In patent publication US20240336617A1, “Substituted Bimane Compounds and Methods of Use Thereof” (THE TRUSTEES OF THE UNIVERSITY OF PENNSYLVANIA, priority 2023, published 2024):

What was measured:
[1] = target: T1, αS fibrils in HEK cell lysate (Homo sapiens, UniProt P37840); assay: Selectivity of probes binding with αS fibrils in HEK cell lysate; settings: 10 mg/mL total protein; probe 1 μM
T1 construct: intein-His6 (C, cleaved yes); made in house; host or cells: Escherichia coli BL21
Procedure: HEK 293T cells were grown on 150 mm dishes in sterile-filtered Dulbecco's modified Eagle's medium (Gibco, Thermo Fisher) supplemented with 10% fetal bovine serum (FBS), 1% penicillin/streptomycin (Mediatech, 10 mg/ml each). Cells were then washed with PBS and harvested in 5 mL PBS by scraping. Cells were pelleted by centrifugation at 1000 rpm for 5 min, and the supernatant was removed. The resulting cell pellet was re-suspended in 300-500 μL PBS buffer with 0.1% Triton X-100 (Bio-Rad) and 1×HALT protease inhibitor cocktail without EDTA (Thermo Fisher), then lysed by sonication for two 30 s cycles (cycle 1: 2 s on 2 s off, amp 50; cycle 2: 2 s on 2 s off, amp 55) using a QSonica Q700 sonicator fitted with a microtip. […]
Probes in PBS buffer (1 μM, the stock solution prepared as 10 mM in DMSO) were incubated with different αS fibril concentrations (0, 5, 10, 25 and 50 μM) in the presence of 10 mg/mL HEK cell lysate in Greiner 96 well flat black ½ area plates at 37° C. with shaking at 500 rpm for 15 min in an IKA MS3 control orbital shaker. After 15 min incubation, fluorescence intensity measurements were obtained with a Tecan Spark plate reader (Mannedorf, Switzerland) by excitation with λex/λem=424/570 nm for 7k, λex/λem=463/580 nm for 7l, λex/λem=484/620 nm for 7m, using the following parameters: excitation and emission bandwidth 5 nm, delay time 0 μs, integration time 40 μs. […]

αS monomer = target: T2, αS monomer (Homo sapiens, UniProt P37840); assay: Fluorescence with αS monomer (with and without TMAO); assay type: binding; settings: for fluorescence turn on with αS monomer: varied probe or protein concentration; for λmax (λem): 10 μM probe, αS monomer 50 μM, excitation 418 nm
T2 construct: intein-His6 (C, cleaved yes); made in house; host or cells: Escherichia coli BL21
Procedure: A 1 mM stock solution of 5k in DMSO and a 6.5 M stock solution of trimethylamine N-oxide (TMAO) in Tris buffer at pH 7.4 were prepared. From these stocks, the fluorescence measurements of probe 5k (10 μM) were carried out with and without αS monomer (50 μM) at different concentrations of TMAO (2 M, 4 M and 6 M) diluted with the Tris buffer. The solutions were mixed and then the spectra were measured using a Photon Technology International (PTI) QuantaMaste 40 fluorescence spectrometer with excitation at 418 nm.

[2] = Viscosity measurements (glycerol mixtures); assay type: physicochemical
Procedure: As a representative example, the viscosity of 7k (25 μM, 10 mM stock in DMSO) in glycerol/methanol mixtures were measured, varying the glycerol percentage 0-99%.
Viscosity measurements. As a representative example, we have measured the viscosity of 5k (25 μM, 10 mM stock in DMSO) in glycerol/ethylene glycol (G/EG) mixtures, varying the glycerol percentage 0-90%. Then, the emission spectra were recorded using a PTI QuantaMaster™ 40 fluorescence spectrometer by excitation with 385 nm wavelength.

Row | detection of PFFs in cytosolic HEK cell lysate [1] | increase in fluorescence intensity with % glycerol ([2]; glycerol/MeOH mixtures) | red-shift with % glycerol ([2]; glycerol/MeOH mixtures) | λmax (λem) (αS monomer; 2 M TMAO) | λmax (λem) (αS monomer; 4 M TMAO) | λmax (λem) (αS monomer; 6 M TMAO) | increase in fluorescence intensity with increased % glycerol ([2]; ethylene glycol/glycerol mixtures) | Structure (SMILES) | fluorescence turn on with αS monomer (αS monomer)
1 | higher fluorescence turn on | > 6 fold | 12 nm | – | – | – | – | Cc1c(C)n2c(/C=C/c3ccc(N4CCOCC4)cc3)c(C)c(=O)n2c1=O [Compound 7k, (E)-2,3,6-trimethyl-5-(4-morpholinostyryl)-1H,7H-pyrazolo[1,2-a]pyrazole-1,7-dione] | no significant fluorescence turn on signal
2 | higher fluorescence turn on | – | – | 567 nm | 566 nm | 560 nm | 3.7 fold | Cc1c(C)n2c(/C=C/c3ccc(N(C)C)cc3)c(C)c(=O)n2c1=O [Compound 7l, (E)-3-(4-(dimethylamino)styryl)-2,5,6-trimethyl-1H,7H-pyrazolo[1,2-a]pyrazole-1,7-dione] | occurs only with αS fibrils, not monomers
